Results published in US12466816B2, “Fused cyclic compound capable of degrading protein and use thereof” (Medshine Discovery Inc., priority 2019, dated 2025).

Key:
Assay type in all cases: cell-based
[1] = target: T1, Wee1 (Homo sapiens, UniProt P30291); test: Detection of protein degradation by the drug (Western blot); set-up: endogenous in cells; host or cells: MOLT-4, U87-MG; settings: 6 hours
Method: Cells were seeded in 6-well plates at a density of about 70%, and the compound WX106 of different concentrations (concentrations shown in the accompanying drawings) were added for 6 hours of treatment, and then the whole-cell lysates were collected for target protein detection. The antibody used was: (Wee1 (D10D2) Rabbit mAb, Cell Signaling, 13084S). To investigate whether drug-induced protein degradation occurs via the ubiquitin pathway, MG132 was used to block ubiquitin-mediated protein degradation. This method was also applied to 293T, MOLT-4, U87-MG, HCT116, and LN-229.
FIG. 13 and FIG. 14 show the effect of WX106 on Wee1 protein expression in MOLT-4 cells.

[2] = target: T2, CK1α (Homo sapiens, UniProt P48729); test: as above; settings: MOLT-4 cells
T2 construct: endogenous in cells; host or cells: MOLT-4

[3] = target: T1, Wee1; test: Label-free quantitative mass spectrometry for proteomic analysis; set-up: endogenous in cells; host or cells: MOLT-4; settings: MOLT-4, 10 μM WX106 (10 μM MG132 where added), 6 hours, replicates
Method: There are three treatment methods for the selected MOLT-4 cells; one is to directly add DMSO as a control, the other is to add 10 μM WX106, and the third is to add 10 μM WX106 and 10 μM MG132 (proteasome inhibitor; APEXBIO, A2585 and MG132 are capable of blocking ubiquitin-mediated protein degradation). Two replicates were prepared for the 10 μM WX106 plus 10 μM MG132 group, and three replicates were prepared for the DMSO control group and 10 μM WX106 administration group, respectively. The drug treatment time for MOLT-4 was 6 hours. Mass spectrometry samples were prepared based on the basic steps of urea cleavage, reductive alkylation, desalting, and lyophilization. The prepared samples were subjected to two-hour gradient analysis on a Q Exactive HF mass spectrometer, followed by data analysis.

[4] = test system: tumor cell lines; test: Cell experiment: CCK-8 growth inhibition of tumor cell lines; settings: 72 hours, hematological tumor cells and some liver cancer cells, read-out: growth inhibitory effect (inhibition rate)
Method: Different cells were seeded in 96-well plates (the density of adherent cells was 1,000/well and the density of suspension cells was 10,000/well), 10 μM of WX106 was added for 72 hours of action, and CCK-8 reagent (Meilun Biotechnology, MA0218-L) was added for 2 hours of reaction thereafter; and the plate was then read with a microplate reader (SpectraMax i3) and the inhibition rate was calculated. Inhibition rate=[(Ac−As)/(Ac−Ab)]×100% (where As represents the absorbance of experimental wells, Ac represents the absorbance of control wells, and Ab represents the absorbance of blank wells).
Eighteen tumor cell lines were treated with 10 μM of WX106 for 72 hours, and the rate of inhibition of cell growth by WX106 was calculated.

[5] = target: CRBN (Homo sapiens, UniProt Q96SW2); test: Protein degradation competition experiment (CC885-induced GSPT1 degradation); set-up: endogenous in cells; host or cells: MOLT-4; settings: MOLT-4 cells, co-treated with 10 nM CC885, 4 hours, Western blot
Method: MOLT-4 cells were co-treated with 0.1, 1 and 10 μM of WX106 and 10 nM of CC885 for 4 hours, and the protein level of GSPT1 was then detected by Western blot, with Poma (Pomalidomide, Selleck, S1567) acting as the positive control in the experiment. Cells were collected and denatured in protein loading buffer (50 mM Tris-HCL 2% SDS, 0.025% BPB, 1% β-mercaptoethanol, 10% glycerol) at 98° C. for 10 min. Proteins were separated by SDS-PAGE and transferred to a PVDF membrane (Millipore, IPVH00010), blocked with 5% skim milk (dissolved in TBST buffer), incubated with a primary antibody overnight at 4° C., and then incubated with a secondary antibody (Anti-rabbit IgG, HRP-linked Antibody, Cell Signaling, 7074S) at room temperature for 1 hour, and the bands on the membrane were detected by chemiluminescence (ECL chemiluminescence kit, Beyotime Biotechnology, P0018AM).

[6] = target: T1, Wee1; test: Detection of compounds that degrade Wee1 protein (Western blot); set-up: endogenous in cells; host or cells: MOLT-4, U87-MG; settings: MOLT-4 cells 10 μM 4 hours, U87-MG cells 1 μM 24 hours
Method: MOLT-4 cells were treated with 10 μM of the test compound for 4 hours and U87-MG cells were treated with 1 μM of the test compound for 24 hours, respectively. With GAPDH (Santa Cruz, sc-32233) as the internal reference protein, the protein level of Wee1 (Cell Signaling, 13084S) was detected using Western blot. Cells were collected, lysed with protein loading buffer (1M Tris-HCl, 10% SDS, 0.025% BPB), and denatured at 98° C. for 10 min before Western blot analysis. The main steps include: 1) Electrophoresis: The protein was separated by SDS-PAGE electrophoresis. During the electrophoresis, the voltage was adjusted to 80 v for about 30 min, and then the voltage was adjusted to 120 v until the bromophenol blue ran out of the gel. 2) Transfer to a membrane: the gel was stuck to a methanol-activated PVDF membrane using the method of wet transfer, and after the top and bottom layers were wrapped with filter paper, the membrane was placed into the gel holder cassette and fixed to the transfer tank, and transfer was performed at a constant current of 250 mA for 90 min; 3) Blocking: the PVDF membrane with trace protein was placed into the antibody incubation box, 5% skim milk was added to completely cover the PVDF membrane, and incubation was performed for 1 hour on a shaker at room temperature; 4) Incubation of the primary antibody: the primary antibody was prepared with 5% BSA (1:1000) and incubated overnight on a shaker at 4° C.; 5) Incubation of the secondary antibody: the membrane was washed thrice with TBST, the secondary antibody (prepared with 5% skim milk) was added (according to the species source of the primary antibody, different secondary antibodies with a dilution range of 1:3000-1:10000 were used), and incubation was performed on a shaker at room temperature for one hour; 5) Exposure: the membrane was washed thrice with TBST and the bands on the membrane were detected by chemiluminescence.

[7] = test system: colorectal cancer cells and brain tumor cell lines; test: Clone formation experiment; settings: 10 μM; some colorectal cancer cells and brain tumor cell lines
Method: The effect of the compound on the monoclone-formation capacity of cells was examined. Cells were seeded in 6-well plates at low density (about 500 cells per well), 10 μM of WX106 was added for treatment, crystal violet staining (Beyotime Biotechnology, C0121) was performed when the cells grew into clones visible to the naked eye, and the number of clones was counted. All treatments were performed in at least three replicates.

[8] = target: T3, GSPT1 (Homo sapiens, UniProt P15170); test: Detection of protein degradation by the drug (Western blot); settings: MOLT-4 cells
T3 construct: endogenous in cells; host or cells: MOLT-4

pro-degradation effect on Wee1 ([1]; HCT116 cells): weak pro-degradation effect
pro-degradation effect on Wee1 ([1]; U87-MG cells): significant pro-degradation effect
pro-degradation effect on CK1α [2]: no significant pro-degradation effect
Wee1 LFQ intensity [3]: 0
effect on degradation of GSPT1 induced by CC885 [5]: reversed
pro-degradation effect on Wee1 [6]: pro-degradation effect on Wee1
relative strength of the pro-degradation effect on Wee1 ([6]; among tested compounds): the strongest
pro-degradation effect on GSPT1 [8]: no significant pro-degradation effect
Structure (SMILES): Cc1ccc(C(=O)Nc2ccc3occ(C4CCC(=O)NC4=O)c3c2)cc1Cl (stereo not shown) [WX106]
inhibition at 10 µM [4]: > 50%
clone formation [7]: inhibits clone formation
